From patent publication US20250009766A1, “CA[…] TREATMENT OF SEIZURES AND EPILEPSY” (The Regents of the University of California, priority 2021, published 2025)
“Also recorded” adds a separate entry of the source.

How the values were obtained:
Format in all cases: in vivo
male CF1 mice [1] = experiment: Mouse maximal electroshock (MES) test, male CF1 mice; settings: for Percentage protection from Tonic Hind limb Extension: Male CF1 mice
Method: (§1) Animals. Male NIH Swiss or CF1 mice (Charles-Rivers, 22-34g) were used in the present study. In most of the experiments, male CF1 mice were used. In the experiment exploring the strain difference between CBD and CBG efficacy in the MES test, these compounds were also tested in male NIH Swiss mice. All experiments involving animals complied with the ARRIVE guidelines of the National Centre for the Replacement, Refinement, and Reduction of Animals in Research and were performed in accordance with the National Institutes of Health Guide for the Care and Use of Laboratory Animals (NIH publication No. 8023, revised in 1978) under protocols approved by the University of California, Davis, Institutional Animal Care and Use Committee.
(§2) All the cannabinoids were prepared in ethanol: Cremophor: saline in the ratio of 2:1:17. These were administered Intraperitoneally (IP) in a dose volume of 10 ml/kg.
(§3) Mouse maximal electroshock test. Samples of CBD, both from decarboxylation of cannabidiolic acid (CBDA) and a commercial source, were tested in parallel as a comparator. Samples of CBD and CBG were prepared by decarboxylating their respective active precursors CBDA and cannabigerolic acid (CBGA; 95+% pure) by heating at 102° C. (215° F.) for 60 min. The precursor compounds were isolated from hemp. For comparison, the antiseizure activity of pure, commercial, hemp-derived CBD and chemically synthesized CBG in crystalline form was also determined in the MES test. Also investigated was whether CBDA and CBGA have antiseizure potential at the highest dose tested (150 mg/kg) in this model. Male CF1 mice were used in the current study. Sixty min after IP injection of the cannabinoids, the animals were subjected to a 0.2-s, 60-Hz, 50-mA electrical stimulus delivered with corneal electrodes (5 mm diameter stainless steel balls) wetted with 0.9% saline. Animals failing to show THLE were scored as protected. In the time-response curve experiment, CBG was administered at different times before the MES test. In most of the experiments, male CF1 mice were used. In the experiment exploring the strain difference between CBD and CBG efficacy in the MES test, these compounds were additionally tested in male NIH Swiss mice.

male CF1 mice [2] = experiment: Mouse pentylenetetrazol (PTZ) test
Method: as §1, §2
Mouse pentylenetetrazol (PTZ) test. Sixty min after IP injection of either cannabidiol (CBD) or cannabigerol (CBG) in male CF1 mice, the animals were challenged with 80 or 100 mg/kg PTZ delivered via intraperitoneal (IP) route of administration. The onset of myoclonic jerks, generalized clonus, tonus/tonic extension, and mortality was observed. The percentage of animals was further calculated that underwent these phases caused by PTZ. Failure to observe such phases or delayed onset is considered as protection.

male NIH Swiss mice = experiment: Mouse maximal electroshock (MES) test, male NIH Swiss mice (strain difference); settings: for Percentage protection from Tonic Hind limb Extension: Male NIH Swiss mice; for effect in MES test: male NIH Swiss mice
Method: as §1, §2, §3

[3] = 50 mg/kg IP, 60 min before MES, male CF1 mice
[4] = 100 mg/kg IP, 60 min before MES, male CF1 mice
[5] = 150 mg/kg IP, 60 min before MES, male CF1 mice
[6] = 200 mg/kg IP, 60 min before MES, male CF1 mice
[7] = male CF1 mice, IP, 60 min before MES
[8] = protection from THLE, male CF1 mice, IP, 60 min before MES
[9] = PTZ 80 mg/kg IP, treatment 100 mg/kg IP 1 h before
[10] = PTZ 80 mg/kg IP, treatment 150 mg/kg IP 1 h before
[11] = PTZ 100 mg/kg IP, treatment 150 mg/kg IP 1 h before
[12] = high dose PTZ test (100 mg/kg), treatment 150 mg/kg IP
[13] = dose 100, 1 h before MES (0.2-s, 60-Hz, 50-mA)
[14] = dose 150, 1 h before MES (0.2-s, 60-Hz, 50-mA)

SMILES: CCCCCc1cc(O)c2c(c1)OC(C)(CCC=C(C)C)C=C2 (stereo not drawn) [CBC oil, cannabichromene]
- Percentage Protection (male CF1 mice [1]; [3]): 11.1%
- Percentage Protection (male CF1 mice [1]; [4]): 12.5%
- Percentage Protection (male CF1 mice [1]; [5]): 12.5%
- Percentage Protection (male CF1 mice [1]; [6]): 25%
- fraction of animals protected (male CF1 mice [1]; 250 mg/kg IP, 60 min before MES, male CF1 mice): 25%
- potency relative to CBD and CBG in MES test (male CF1 mice [1]; [7]): less potent than CBD and CBG

SMILES: C=C(C)[C@@H]1CCC(C)=C[C@H]1c1c(O)cc(CCCCC)cc1O [CBD obtained from CBDA isolates, cannabidiol]
- doses at which animals were protected from THLE (male CF1 mice [1]; [7]): 25 to 150 mg/kg
- ED50 (mg/kg, IP) (male CF1 mice [1]; [8]): 62.7 ± 5.6 mg/kg

SMILES: C=C(C)[C@@H]1CCC(C)=C[C@H]1c1c(O)cc(CCCCC)cc1O [CBD, cannabidiol]
- Death time (s) (male CF1 mice [2]; [9]): None
- Onset of generalized clonus (male CF1 mice [2]; [9]): 333.9 ± 174.3 s
- Onset of jerks (male CF1 mice [2]; [9]): 138.1 ± 61.9 s
- Onset of tonus (s) (male CF1 mice [2]; [9]): None
- Percentage animals having generalized clonus (male CF1 mice [2]; [9]): 87.5%
- Percentage animals having tonus (male CF1 mice [2]; [9]): None
- Percentage mortality (male CF1 mice [2]; [9]): 0%
- Percentage of animals having myoclonic jerks (male CF1 mice [2]; [9]): 100%
- Death time (s) (male CF1 mice [2]; [10]): None
- Onset of generalized clonus (male CF1 mice [2]; [10]): 612.5 ± 515.5 s
- Onset of jerks (male CF1 mice [2]; [10]): 95.6 ± 13.3 s
- Onset of tonus (s) (male CF1 mice [2]; [10]): None
- Percentage animals having generalized clonus (male CF1 mice [2]; [10]): 25%
- Percentage animals having tonus (male CF1 mice [2]; [10]): None
- Percentage mortality (male CF1 mice [2]; [10]): 0%
- Percentage of animals having myoclonic jerks (male CF1 mice [2]; [10]): 100%
- Death time (s) (male CF1 mice [2]; [11]): None
- Onset of generalized clonus (male CF1 mice [2]; [11]): 329.3 ± 152.3 s
- Onset of jerks (male CF1 mice [2]; [11]): 63.6 ± 4.8 s
- Onset of tonus (male CF1 mice [2]; [11]): 1362.5 ± 888.5 s
- Percentage animals having generalized clonus (male CF1 mice [2]; [11]): 100%
- Percentage animals having tonus (male CF1 mice [2]; [11]): 25%
- Percentage mortality (male CF1 mice [2]; [11]): 0%
- Percentage of animals having myoclonic jerks (male CF1 mice [2]; [11]): 100%
- effect on generalized clonus (male CF1 mice [2]; high dose PTZ test (100 mg/kg)): no difference
- latency to onset of myoclonic jerks (male CF1 mice [2]; [12]): increased the latency to onset of myoclonic jerks
- protection from tonus phase and mortality (male CF1 mice [2]; [12]): protected animals from undergoing tonus phase and mortality
- protection from generalized clonus (male CF1 mice [2]; low dose PTZ test (80 mg/kg, IP), treatment 150 mg/kg IP): effective in protecting animals from generalized clonus
- Percentage protection from Tonic Hind limb Extension (male CF1 mice [1]; [13]): 100%
- Percentage protection from Tonic Hind limb Extension (male CF1 mice [1]; [14]): 100%
- effect in MES test (male CF1 mice [1]; male CF1 mice): protected animals from Tonic Hindlimb Extension (THLE); also recorded: effective
- Percentage protection from Tonic Hind limb Extension (male NIH Swiss mice; [13]): 12.5%
- Percentage protection from Tonic Hind limb Extension (male NIH Swiss mice; [14]): 12.5%
- effect in MES test (male NIH Swiss mice): not protective

SMILES: CCCCCc1cc(O)c(C/C=C(\C)CCC=C(C)C)c(O)c1 [CBG obtained from CBGA, cannabigerol]
- doses at which animals were protected from THLE (male CF1 mice [1]; [7]): 65 to 200 mg/kg
- ED50 (male CF1 mice [1]; [8]): 99 ± 7.01 mg/kg

SMILES: CCCCCc1cc(O)c(C/C=C(\C)CCC=C(C)C)c(O)c1 [CBG, cannabigerol]
- Death time (s) (male CF1 mice [2]; [9]): None
- Onset of generalized clonus (male CF1 mice [2]; [9]): 199.1 ± 90.6 s
- Onset of jerks (male CF1 mice [2]; [9]): 101.1 ± 50.7 s
- Onset of tonus (s) (male CF1 mice [2]; [9]): None
- Percentage animals having generalized clonus (male CF1 mice [2]; [9]): 87.5%
- Percentage animals having tonus (male CF1 mice [2]; [9]): None
- Percentage mortality (male CF1 mice [2]; [9]): 0%
- Percentage of animals having myoclonic jerks (male CF1 mice [2]; [9]): 87.5%
- Death time (s) (male CF1 mice [2]; [10]): None
- Onset of generalized clonus (male CF1 mice [2]; [10]): 117.8 ± 46.8 s
- Onset of jerks (male CF1 mice [2]; [10]): 93 ± 26.6 s
- Onset of tonus (male CF1 mice [2]; [10]): 852.5 ± 170.5 s
- Percentage animals having generalized clonus (male CF1 mice [2]; [10]): 62.5%
- Percentage animals having tonus (male CF1 mice [2]; [10]): 25%
- Percentage mortality (male CF1 mice [2]; [10]): 0%
- Percentage of animals having myoclonic jerks (male CF1 mice [2]; [10]): 100%
- Death time (male CF1 mice [2]; [11]): 1082.6 ± 265.5 s
- Onset of generalized clonus (male CF1 mice [2]; [11]): 200.8 ± 105.9 s
- Onset of jerks (male CF1 mice [2]; [11]): 50.1 ± 3.3 s
- Onset of tonus (male CF1 mice [2]; [11]): 1351.3 ± 410.7 s
- Percentage animals having generalized clonus (male CF1 mice [2]; [11]): 100%
- Percentage animals having tonus (male CF1 mice [2]; [11]): 100%
- Percentage mortality (male CF1 mice [2]; [11]): 62.5%
- Percentage of animals having myoclonic jerks (male CF1 mice [2]; [11]): 100%
- overall effect in PTZ seizure test (male CF1 mice [2]; PTZ IP, male CF1 mice): had no effect
- protection from mortality (male CF1 mice [2]; high dose PTZ): protected some animals from mortality
- Percentage protection from Tonic Hind limb Extension (male CF1 mice [1]; [13]): 62.5%
- Percentage protection from Tonic Hind limb Extension (male CF1 mice [1]; [14]): 75%
- effect in MES test (male CF1 mice [1]; male CF1 mice): protected animals from Tonic Hindlimb Extension (THLE); also recorded: effective
- time of maximum response (protection from THLE) after administration (male CF1 mice [1]; single IP injection of 100 mg/kg, male CF1 mice, tested 15-240 min): 60 to 120 min
- Percentage protection from Tonic Hind limb Extension (male NIH Swiss mice; [13]): 12.5%
- Percentage protection from Tonic Hind limb Extension (male NIH Swiss mice; [14]): 12.5%
- effect in MES test (male NIH Swiss mice): not protective

SMILES: C=C(C)[C@@H]1CCC(C)=C[C@H]1c1c(O)cc(CCCCC)c(C(=O)O)c1O [Cannabidiolic acid (CBDA), cannabidiolic acid]
- Percentage Protection (male CF1 mice [1]; [5]): 0%
- antiseizure activity (male CF1 mice [1]; highest dose tested (150 mg/kg), male CF1 mice): no antiseizure activity

SMILES: CCCCCc1cc(O)c(C/C=C(\C)CCC=C(C)C)c(O)c1C(=O)O [Cannabigerolic acid (CBGA), cannabigerolic acid]
- Percentage Protection (male CF1 mice [1]; [5]): 25%

SMILES: C=C(C)[C@@H]1CCC(C)=C[C@H]1c1c(O)cc(CCCCC)cc1O [Crystalline hemp derived CBD, cannabidiol]
- Percentage Protection (male CF1 mice [1]; [3]): 0%
- Percentage Protection (male CF1 mice [1]; 65 mg/kg IP, 60 min before MES, male CF1 mice): 37.5%
- Percentage Protection (male CF1 mice [1]; 75 mg/kg IP, 60 min before MES, male CF1 mice): 37.5%
- Percentage Protection (male CF1 mice [1]; 85 mg/kg IP, 60 min before MES, male CF1 mice): 50%
- Percentage Protection (male CF1 mice [1]; [4]): 75%
- Percentage Protection (male CF1 mice [1]; [5]): 75%
- ED50 (mg/kg, IP) (male CF1 mice [1]; protection from THLE, male CF1 mice, IP, 60 min before MES, listed as commercial CBD): 83.7 ± 5.7 mg/kg

SMILES: CCCCCc1cc(O)c(C/C=C(\C)CCC=C(C)C)c(O)c1 [cannabigerol]
- Percentage Protection (male CF1 mice [1]; [4]): 62.5%
- Percentage Protection (male CF1 mice [1]; [5]): 75%
- Percentage Protection (male CF1 mice [1]; [6]): 62.5%
